Marks after values point to notes of the source that are not given here.
What was measured:
Format in all cases: in vivo
Phakopsora pachyrhizi = experiment: Test A: test suspension sprayed on soybean seedlings, inoculated next day with Phakopsora pachyrhizi (Asian soybean rust), visual disease rating; conditions: for Test A rating (% disease control): relative to the controls
Summary of the method: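 Compounds first dissolved in acetone (3% of final volume), then suspended in acetone/water 50/50 with 250 ppm PEG400 and sprayed to run-off on soybean seedlings at the stated ppm rate. Inoculated next day with P. pachyrhizi spores; 24 h saturated atmosphere at 22 °C, then 8 days in growth chamber at 22 °C before visual disease rating.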

Zymoseptoria tritici = experiment: Test B: test suspension sprayed on wheat seedlings, inoculated next day with Zymoseptoria tritici (wheat leaf blotch), visual disease rating; conditions: for Test B rating (% disease control): relative to the controls
Text: General protocol for preparing test suspensions for Tests A-C: the test compounds were first dissolved in acetone in an amount equal to 3% of the final volume and then suspended at the desired concentration (in ppm) in acetone and purified water (50/50 mix by volume) containing 250 ppm of the surfactant PEG400 (polyhydric alcohol esters). The resulting test suspensions were then used in Tests A-C.
The test suspension was sprayed to the point of run-off on wheat seedlings. The following day the seedlings were inoculated with a spore suspension of Zymoseptoria tritici (the causal agent of wheat leaf blotch) and incubated in a saturated atmosphere at 24° C., for 48 h, and then moved to a growth chamber at 20° C., for 17 days, after which time visual disease ratings were made.
Results for Tests A-C are given in Table A. In the Table, a rating of 100 indicates 100% disease control and a rating of 0 indicates no disease control (relative to the controls). A dash (-) indicates the compound was not tested. The test suspensions were sprayed at the concentration listed in the column “Rate in ppm”, unless otherwise indicated. An asterisk “*” next to the rating indicates a 250 ppm test suspension was used, a double asterisk “**” next to the rating indicates a 100 ppm test suspension was used, and a triple asterisk “***” next to the rating indicates a 50 ppm test suspension was used.

[1] = system: Puccinia recondita f. sp. tritici; experiment: Test C: test suspension sprayed on wheat seedlings, inoculated next day with Puccinia recondita f. sp. tritici (wheat leaf rust), visual disease rating; conditions: for Test C rating (% disease control): relative to the controls
Summary of the method: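 Compounds dissolved in acetone (3% of final volume), suspended in acetone/water 50/50 with 250 ppm PEG400 and sprayed to run-off on wheat seedlings at the listed ppm rate. Inoculated next day with P. recondita spores; 24 h saturated atmosphere at 20° C, then 6 days growth chamber at 20° C; visual disease rating.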

[2] = 100 ppm test suspension (double asterisk **)

Row | Compound | Test A rating (% disease control) (Phakopsora pachyrhizi; Rate 10 ppm test suspension) | Test B rating (% disease control) (Zymoseptoria tritici; 250 ppm test suspension) | Test C rating (% disease control) ([1]; Rate 10 ppm test suspension) | Test B disease control rating (Zymoseptoria tritici; 250 ppm test suspension) | other results
1 | CCOC(=O)c1csc(COc2ccc(-c3noc(C(F)(F)F)n3)cc2)n1 [compound 404] | 0% | 0* % | 68% |  | 
2 | O=C(NCCn1cccn1)c1coc(Cc2ccc(-c3noc(C(F)(F)F)n3)cc2)n1 [compound 264] |  |  |  | 99* % | Test A disease control rating (Phakopsora pachyrhizi; 10 ppm test suspension): 100%; Test C disease control rating ([1]; 10 ppm test suspension): 99%
3 | FC(F)(F)c1nc(-c2ccc(Cc3ccccc3)cc2)no1 [compound 451] | 99% | 8* % | 0% |  | 
4 | 1,3-dihydro-1-methyl-3-[[4-[5-(trifluoromethyl)-1,2,4-oxadiazol-3-yl]phenyl]methyl]-2H-benzimidazol-2-one [Compound 159] |  |  |  | 0% | Test A disease control rating (Phakopsora pachyrhizi; 250 ppm test suspension): 100%; Test C disease control rating ([1]; 250 ppm test suspension): 100%
5 | COCC(COC)NC(=O)c1csc(Cc2ccc(-c3noc(C(F)(F)F)n3)cc2)n1 [compound 489] | 100% | 92* % | 99% |  | 
6 | O=C(NCCC(F)(F)F)c1csc(COc2ccc(-c3noc(C(F)(F)F)n3)cc2)n1 [compound 472] | 77% | 22* % | 0% |  | 
7 | α-(phenylamino)-4-[5-(trifluoromethyl)-1,2,4-oxadiazol-3-yl]benzeneacetonitrile [Compound 13] |  |  |  | 86% | Test A disease control rating (Phakopsora pachyrhizi; 250 ppm test suspension): 100%; Test C disease control rating ([1]; 250 ppm test suspension): 100%
8 | O=C(NCC(F)(F)F)c1coc(COc2ccc(-c3noc(C(F)(F)F)n3)cc2)n1 [compound 465] | 100% | 0* % | 80% |  | 
9 | O=C(NCCCC(F)(F)F)c1coc(Cc2ccc(-c3noc(C(F)(F)F)n3)cc2)n1 [compound 398] | 100% | 80* % | 97% |  | 
10 | CN(C)C(=O)C1=NOC(CN2CCC(c3noc(C(F)(F)F)n3)CC2)C1 (stereo not drawn) [compound 426] |  | 9* % |  |  | Test A rating (% disease control) (Phakopsora pachyrhizi; Rate 250 ppm test suspension): 0%; Test C rating (% disease control) ([1]; Rate 250 ppm test suspension): 0%
11 | OC(c1ccc(-c2noc(C(F)(F)F)n2)cc1)c1cccc(F)c1 (racemic) [compound 498] | 100% | 43* % | 0% |  | 
12 | O=C(c1ccc(Cc2ccc(-c3noc(C(F)(F)F)n3)cc2)o1)C(F)(F)F [compound 450] | 94% | 41* % | 0% |  | 
13 | O=C(CCl)COC(=O)c1cnn(Cc2ccc(-c3noc(C(F)(F)F)n3)cc2)c1 [compound 495] | 100% | 43* % | 0% |  | 
14 | COCCNC(=O)c1csc(Cc2ccc(-c3noc(C(F)(F)F)n3)cc2)n1 [compound 394] | 100% | 99* % | 100% |  | 
15 | O=C(NCC(F)F)c1coc(Cc2ccc(-c3noc(C(F)(F)F)n3)cc2)n1 [compound 225] |  |  |  | 99* % | Test A disease control rating (Phakopsora pachyrhizi; 10 ppm test suspension): 100%; Test C disease control rating ([1]; 10 ppm test suspension): 100%
16 | CCOC(=O)c1cnn(CN2CCC(c3noc(C(F)(F)F)n3)CC2)c1 [compound 458] |  | 0* % |  |  | Test A rating (% disease control) (Phakopsora pachyrhizi; Rate 50 ppm test suspension): 0%; Test C rating (% disease control) ([1]; Rate 50 ppm test suspension): 0%
17 | methyl 2-[[4-[5-(trifluoromethyl)-1,2,4-oxadiazol-3-yl]-phenoxy]methyl]oxazole-4-carboxylate [Compound 403] |  |  |  | 93% | Test A disease control rating (Phakopsora pachyrhizi; 250 ppm test suspension): 100%; Test C disease control rating ([1]; 250 ppm test suspension): 100%

Row | Compound | Test A rating (% disease control) (Phakopsora pachyrhizi; Rate 10 ppm test suspension) | Test B rating (% disease control) (Zymoseptoria tritici; 250 ppm test suspension) | Test C rating (% disease control) ([1]; Rate 10 ppm test suspension) | Test B disease control rating (Zymoseptoria tritici; 250 ppm test suspension) | other results
18 | COC(=O)c1coc(Cc2ccc(-c3noc(C(F)(F)F)n3)cc2)n1 [Compound 490] | 100% | 94* % | 74% |  | 
19 | O=C(NCC=C(Cl)Cl)c1coc(Cc2ccc(-c3noc(C(F)(F)F)n3)cc2)n1 [compound 399] | 100% | 10* % | 99% |  | 
20 | CN(C)C(=O)C1=NOC(C)(Cn2cc(-c3noc(C(F)(F)F)n3)cn2)C1 (racemic) [compound 306] |  |  |  | 10* % | Test A disease control rating (Phakopsora pachyrhizi; 50 ppm test suspension): 0%; Test C disease control rating ([1]; 50 ppm test suspension): 0%
21 | O=C(NCC(F)(F)F)c1csc(COc2ccc(-c3noc(C(F)(F)F)n3)cc2)n1 [compound 470] | 100% | 0* % | 94% |  | 
22 | CCCOC(=O)c1cnn(Cc2ccc(-c3noc(C(F)(F)F)n3)s2)c1 [compound 198] |  |  |  |  | Test A disease control rating (Phakopsora pachyrhizi; 10 ppm test suspension): 100%; Test B disease control rating (Zymoseptoria tritici; [2]): 94** %; Test C disease control rating ([1]; 10 ppm test suspension): 99%
23 | N#CCNC(=O)c1csc(Cc2ccc(-c3noc(C(F)(F)F)n3)cc2)n1 [compound 393] | 100% | 94* % | 100% |  | 
24 | O=C(NCCF)c1coc(Cc2ccc(-c3noc(C(F)(F)F)n3)cc2)n1 [compound 400] | 100% | 99* % | 100% |  | 
25 | COC(=O)c1cnc(Oc2ccc(-c3noc(C(F)(F)F)n3)cc2)s1 [compound 452] | 81% | 59* % | 0% |  | 
26 | N#CCOC(=O)c1cnn(Cc2ccc(-c3noc(C(F)(F)F)n3)cc2)c1 [compound 57] |  |  |  |  | Test A disease control rating (Phakopsora pachyrhizi; 10 ppm test suspension): 100%; Test B disease control rating (Zymoseptoria tritici; [2]): 99** %; Test C disease control rating ([1]; 10 ppm test suspension): 100%
27 | COC(=O)c1csc(Cc2ccc(-c3noc(C(F)(F)F)n3)cc2)c1 [Compound 455] | 100% | 66* % | 0% |  | 
28 | 4,5-dihydro-2-[[4-[5-(trifluoromethyl)-1,2,4-oxadiazol-3-yl]phenyl]methyl]-4-oxazolecarboxamide [Compound 75] |  |  |  | 98% | Test A disease control rating (Phakopsora pachyrhizi; 250 ppm test suspension): 100%; Test C disease control rating ([1]; 250 ppm test suspension): 100%
29 | O=C(NCCC(F)(F)F)c1coc(Cc2ccc(-c3noc(C(F)(F)F)n3)cc2)n1 [compound 330] |  |  |  | 96* % | Test A disease control rating (Phakopsora pachyrhizi; 10 ppm test suspension): 100%; Test C disease control rating ([1]; 10 ppm test suspension): 100%
30 | N#CCCNC(=O)c1coc(Cc2ccc(-c3noc(C(F)(F)F)n3)cc2)n1 [compound 229] |  |  |  | 94* % | Test A disease control rating (Phakopsora pachyrhizi; 10 ppm test suspension): 100%; Test C disease control rating ([1]; 10 ppm test suspension): 100%
31 | O=C(NCC(F)(F)F)c1coc(Cc2ccc(-c3noc(C(F)(F)F)n3)cc2)n1 [compound 316] |  |  |  | 5* % | Test A disease control rating (Phakopsora pachyrhizi; 10 ppm test suspension): 100%; Test C disease control rating ([1]; 10 ppm test suspension): 100%
32 | O=C(NCCC(F)(F)F)c1csc(Cc2ccc(-c3noc(C(F)(F)F)n3)cc2)n1 [compound 397] | 100% | 82* % | 98% |  | 
33 | O=C(NCCn1cccn1)c1csc(Cc2ccc(-c3noc(C(F)(F)F)n3)cc2)n1 [compound 396] | 100% | 28* % | 100% |  | 
